{"source": "patent US20260207654A1", "about": "“HEPARAN SULFATE AND ITS MIMETICS AS CHEMOKINE INHIBITORS” (INDIAN INSTITUTE OF SCIENCE EDUCATION AND RESEARCH, priority 2021, published 2026)", "assay_in_all_cases": "Chemokine glycan microarray binding assay", "settings_in_all_cases": "maximum RFU set as 100% binding, average across 2 glycan concentrations and 3 chemokine dilutions (n=6)", "key": {"[1]": {"molecular_target": "CCL13 (Homo sapiens, UniProt Q99616)", "sequence (Q99616 17-98, species assumed)": "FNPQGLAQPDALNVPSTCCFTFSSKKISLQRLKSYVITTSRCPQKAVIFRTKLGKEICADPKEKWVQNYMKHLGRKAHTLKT", "how_it_was_run": "(§1)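 Epoxy-slide glycan array; block: PBS pH 7.3 + 1% ovalbumin, 1 h RT. Chemokine, 3 serial dilutions, 2 h RT; biotin-secondary Ab 1 μg/mL → Cy3-SA; fluorescence scan. Max RFU per block = 100%, others ranked; mean rank ± SEM over dilutions.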"}, "[2]": {"molecular_target": "CCL2 (Homo sapiens, UniProt P13500)", "sequence (P13500 24-99, species assumed)": "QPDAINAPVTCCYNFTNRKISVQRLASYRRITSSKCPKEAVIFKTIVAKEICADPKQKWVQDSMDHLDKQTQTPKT", "how_it_was_run": "as §1"}, "[3]": {"molecular_target": "T1, CCL21 (Homo sapiens, UniProt O00585)", "T1 sequence (O00585 24-134)": "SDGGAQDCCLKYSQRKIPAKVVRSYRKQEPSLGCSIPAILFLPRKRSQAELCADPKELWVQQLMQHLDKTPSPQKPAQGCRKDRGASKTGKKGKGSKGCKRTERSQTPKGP", "how_it_was_run": "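Read-out is Cy3 fluorescence (RFU) of chemokine bound to covalently arrayed glycans, converted to rank against the block's maximum signal and averaged over three chemokine dilutions. Binding ran 2 h at room temperature in PBS pH 7.3 containing 1% ovalbumin; detection used a biotinylated secondary antibody and Cy3-streptavidin.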"}, "[4]": {"molecular_target": "T2, CCL28 (Homo sapiens, UniProt Q9NRJ3)", "T2 sequence (Q9NRJ3 20-127)": "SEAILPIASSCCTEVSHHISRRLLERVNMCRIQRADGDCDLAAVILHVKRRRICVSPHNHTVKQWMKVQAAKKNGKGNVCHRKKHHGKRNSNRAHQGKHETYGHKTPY", "how_it_was_run": "as §1"}, "[5]": {"molecular_target": "T3, CCL5 (Homo sapiens, UniProt P13501)", "T3 sequence (P13501 24-91)": "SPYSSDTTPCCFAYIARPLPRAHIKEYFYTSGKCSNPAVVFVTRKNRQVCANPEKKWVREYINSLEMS", "how_it_was_run": "as §1"}, "[6]": {"molecular_target": "CCL7 (Homo sapiens, UniProt P80098)", "sequence (P80098 24-99, species assumed)": "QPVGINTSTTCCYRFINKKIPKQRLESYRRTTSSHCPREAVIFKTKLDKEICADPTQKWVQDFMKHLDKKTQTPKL", "how_it_was_run": "as §1"}, "[7]": {"molecular_target": "T4, CXCL10 (Homo sapiens, UniProt P02778)", "T4 sequence (P02778 22-98)": "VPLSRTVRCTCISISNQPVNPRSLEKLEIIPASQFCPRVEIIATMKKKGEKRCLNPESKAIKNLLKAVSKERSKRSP", "how_it_was_run": "as §1"}, "[8]": {"molecular_target": "CXCL12 (Homo sapiens, UniProt P48061)", "sequence (P48061 22-93, species assumed)": "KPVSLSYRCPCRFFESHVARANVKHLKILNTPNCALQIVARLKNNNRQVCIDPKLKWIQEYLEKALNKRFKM", "how_it_was_run": "as §1"}, "[9]": {"molecular_target": "T5, CXCL8 (Homo sapiens, UniProt P10145)", "T5 sequence (P10145 21-99)": "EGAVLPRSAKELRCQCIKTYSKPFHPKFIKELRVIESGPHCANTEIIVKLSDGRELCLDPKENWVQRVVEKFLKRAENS", "how_it_was_run": "as §1"}}}
{"smiles": "CC(=O)NC1C(O)[C@H](O)C(CO)O[C@@H]1O[C@@H]1C(C(=O)O)O[C@@H](O[C@@H]2C(CO)O[C@H](O[C@@H]3C(C(=O)O)O[C@@H](OCCCN)C(OS(=O)(=O)O)C3O)C(NC(C)=O)C2O)C(OS(=O)(=O)O)C1O", "note": "(stereo partly drawn) [Example 14, 3-Aminopropyl-O-[(2-acetamido-2-deoxy-α-D-glucopyranosyl)-(1→4)-O-(2-O-sulfonato-α-L-idopyranosyluronate)-(1→4)-O-(2-acetamido-2-deoxy-α-D-glucopyranosyl)]-(1→4)-O-2-O-sulfonato-α-L-idopyranosiduronate]", "values": [{"measurement": "mean rank binding to CCL13", "setting": "[1]", "value": 21, "unit": "%"}, {"measurement": "mean rank binding to CCL2", "setting": "[2]", "value": 0, "unit": "%"}, {"measurement": "mean rank binding to CCL21", "setting": "[3]", "value": 23, "unit": "%"}, {"measurement": "mean rank binding to CCL28", "setting": "[4]", "value": 21, "unit": "%"}, {"measurement": "mean rank binding to CCL5", "setting": "[5]", "value": 1, "unit": "%"}, {"measurement": "mean rank binding to CCL7", "setting": "[6]", "value": 1, "unit": "%"}, {"measurement": "mean rank binding to CXCL10", "setting": "[7]", "value": 11, "unit": "%"}, {"measurement": "mean rank binding to CXCL12", "setting": "[8]", "value": 11, "unit": "%"}, {"measurement": "mean rank binding to CXCL8", "setting": "[9]", "value": 2, "unit": "%"}]}
